Data reported in patent US11384060B2, “Amide compounds and use thereof” (ALPHALA CO., LTD., priority 2017, dated 2022).
pIC50: −log10 of the molar value.

Tests used:
[1] = biological target: T1, glucagon receptor (GCGR) (Homo sapiens, UniProt P47871); assay: I125-glucagon binding assay (competition, GCGR membrane fractions); conditions: competition with I125-glucagon 0.0625 nM, membrane fractions of GCGR overexpressed CHO-K1 cells
T1 construct: expressed in transfected cells; host or cells: CHO-K1 cells overexpressing GCGR (membrane fractions)
T1 sequence (P47871 26-477): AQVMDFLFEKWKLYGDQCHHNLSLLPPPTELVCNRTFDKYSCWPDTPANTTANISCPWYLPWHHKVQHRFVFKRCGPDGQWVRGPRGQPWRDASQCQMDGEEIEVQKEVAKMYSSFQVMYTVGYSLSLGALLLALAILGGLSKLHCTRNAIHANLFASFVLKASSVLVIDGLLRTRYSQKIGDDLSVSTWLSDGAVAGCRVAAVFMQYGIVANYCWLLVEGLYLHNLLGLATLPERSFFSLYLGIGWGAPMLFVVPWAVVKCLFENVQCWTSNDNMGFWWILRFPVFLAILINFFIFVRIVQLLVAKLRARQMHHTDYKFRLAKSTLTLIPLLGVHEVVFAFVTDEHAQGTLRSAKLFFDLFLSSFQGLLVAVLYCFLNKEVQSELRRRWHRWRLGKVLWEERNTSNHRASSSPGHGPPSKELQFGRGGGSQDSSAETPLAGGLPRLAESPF
Outline: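 Competition of 0.0625 nM (final) I^125-glucagon for 30 min at 25° C, after 5 min compound preincubation, using 7.5 μg/well GCGR-overexpressing CHO-K1 membranes in 50 mM Tris pH 7.4, 0.5% BSA. Filtration onto PEI-coated GF/B, micro-beta counting, and non-linear regression gave IC50.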

[2] = biological target: T2, glucagon receptor (GCGR) overexpressed CHO-K1 cells or human primary hepatocytes (Homo sapiens, UniProt P47871); assay: Glucagon cAMP inhibition assay (Cisbio cAMP Dynamic 2 HTRF); type: cell-based; conditions: inhibition of glucagon (EC50 concentration) induced cAMP production
T2 construct: expressed in transfected cells; host or cells: GCGR overexpressed CHO-K1 cells or human primary hepatocytes (endogenous receptor)
T2 sequence (P47871 26-477): as above
Outline: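 HTRF read-out of glucagon-induced cAMP, with IC50 from non-linear regression. Cells (GCGR CHO-K1 or human primary hepatocytes) in HBSS/0.1% BSA/800 nM IBMX took compound dilutions for 30 min (final DMSO 1%), then EC50-level glucagon for 30 min at room temperature, then a 60 min lysis/detection step.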

Row | Compound | pIC50 [1] | IC50 cAMP [2] [µM]
1 | CC(C)[C@@H](COc1ccc(-c2cc3ccccc3o2)c(Cl)c1)Nc1ccc(C(=O)NCc2nnn[nH]2)cc1 [Compound 3-5, (S)—N-((1H-tetrazol-5-yl)methyl)-4-((1-(4-(benzofuran-2-yl)-3-chlorophenoxy)-3-methylbutan-2-yl)amino)benzamide] | 6.93 | 1.863
2 | CC(C)[C@@H](COc1ccc(-c2cc3ccccc3o2)c(Cl)c1)Nc1ccc(C(=O)NC[C@@H](O)C(=O)O)cc1 [Compound 3-6, (R)-3-(4-(((S)-1-(4-(benzofuran-2-yl)-3-chlorophenoxy)-3-methylbutan-2-yl)amino)benzamido)-2-hydroxypropanoic Acid] | 6.74 | 9.291
3 | CC(C)[C@@H](COc1ccc(-c2cc3ccccc3o2)c(Cl)c1)Nc1ccc(C(=O)NCCC(=O)O)cc1 [Compound 3-7, (S)-3-(4-((1-(4-(benzofuran-2-yl)-3-chlorophenoxy)-3-methylbutan-2-yl)amino)benzamido)propanoic Acid] | 6.99 | 0.3635
4 | CCCC[C@@H](COc1ccc(-c2ccc(C(F)(F)F)cc2Cl)c(Cl)c1)Nc1ccc(C(=O)NCCC(=O)O)cc1 [Compound 3-8, (S)-3-(4-((1-((2,2′-dichloro-4′-(trifluoromethyl)-[1,1′-biphenyl]-4-yl)oxy)hexan-2-yl)amino)benzamido)propanoic Acid] | 7.59 | 0.035
5 | CCCC[C@@H](COc1ccc(-c2ccc(C(F)(F)F)cc2Cl)c(Cl)c1)Nc1ccc(C(=O)NCc2nnn[nH]2)cc1 [Compound 3-9, (S)—N-((1H-tetrazol-5-yl)methyl)-4-((1-((2,2′-dichloro-4′-(trifluoromethyl)-[1,1′-biphenyl]-4-yl)oxy)hexan-2-yl)amino)benzamide] | 7.43 | 0.5281
6 | CCCC[C@@H](COc1ccc(-c2cc3ccccc3o2)c(Cl)c1)Nc1ccc(C(=O)NCCC(=O)O)cc1 [Compound 3-10, (S)-3-(4-((1-(4-(benzofuran-2-yl)-3-chlorophenoxy)hexan-2-yl)amino)benzamido)propanoic Acid] | 7.70 | 0.0887
7 | CCCC[C@@H](COc1ccc(-c2cc3ccccc3o2)c(Cl)c1)Nc1ccc(C(=O)NCc2nnn[nH]2)cc1 [Compound 3-11, (S)—N-((1H-tetrazol-5-yl)methyl)-4-((1-(4-(benzofuran-2-yl)-3-chlorophenoxy)hexan-2-yl)amino)benzamide] | 6.83 | 0.6728
8 | CCCC[C@@H](COc1ccc(-c2ccc(Cl)cc2Cl)c(Cl)c1)Nc1ccc(C(=O)NCCC(=O)O)cc1 [Compound 3-12, (S)-3-(4-((1-((2,2′,4′-trichloro-[1,1′-biphenyl]-4-yl)oxy)hexan-2-yl)amino)benzamido)propanoic Acid] | 7.52 | 0.0281
9 | CCCC[C@@H](COc1ccc(-c2ccc(Cl)cc2Cl)c(Cl)c1)Nc1ccc(C(=O)NCc2nnn[nH]2)cc1 [Compound 3-13, (S)—N-((1H-tetrazol-5-yl)methyl)-4-((1-((2,2′,4′-trichloro-[1,1′-biphenyl]-4-yl)oxy)hexan-2-yl)amino)benzamide] | 7.04 | 0.2799
10 | CC(C)[C@@H](COc1cc(Cl)c(-c2cc3ccccc3o2)cc1Cl)Nc1ccc(C(=O)NCCC(=O)O)cc1 [Compound 3-14, (S)-3-(4-((1-(4-(benzofuran-2-yl)-2,5-dichlorophenoxy)-3-methylbutan-2-yl)amino)benzamido)propanoic Acid] | 7.24 | 0.1154
11 | CCCC[C@@H](COc1ccc(-c2ccc(C(F)(F)F)cc2)c(Cl)c1)Nc1ccc(C(=O)NCCC(=O)O)cc1 [Compound 3-16, (S)-3-(4-((1-((2-chloro-4′-(trifluoromethyl)-[1,1′-biphenyl]-4-yl)oxy)hexan-2-yl)amino)benzamido)propanoic Acid] | 7.29 | 0.3677
12 | CCCC[C@@H](COc1ccc(-c2ccc(C(F)(F)F)cc2)c(Cl)c1)Nc1ccc(C(=O)NCc2nnn[nH]2)cc1 [Compound 3-17, (S)—N-((1H-tetrazol-5-yl)methyl)-4-((1-((2-chloro-4′-(trifluoromethyl)-[1,1′-biphenyl]-4-yl)oxy)hexan-2-yl)amino)benzamide] | 6.95 | 0.105
13 | CC(C)[C@@H](COc1ccc(-c2cc3ccccc3o2)c(Cl)c1)Nc1ccc(C(=O)NCCS(=O)(=O)O)cc1 [Compound 3-18, (S)-2-(4-((1-(4-(benzofuran-2-yl)-3-chlorophenoxy)-3-methylbutan-2-yl)amino)benzamido)ethane-1-sulfonic Acid] | 6.08 | >30
14 | CC[C@H](C)[C@@H](COc1cc(Cl)c(-c2cc3ccccc3o2)cc1Cl)Nc1ccc(C(=O)NCCC(=O)O)cc1 [Compound 3-19, 3-(4-(((2S,3S)-1-(4-(benzofuran-2-yl)-2,5-dichlorophenoxy)-3-methylpentan-2-yl)amino)benzamido)propanoic Acid] | 7.19 | 0.13
15 | CC[C@H](C)[C@@H](COc1cc(Cl)c(-c2ccc(C(F)(F)F)cc2Cl)cc1Cl)Nc1ccc(C(=O)NCCC(=O)O)cc1 [Compound 3-20, 3-(4-(((2S,3S)-3-methyl-1-((2,2′,5-trichloro-4′-(trifluoromethyl)-[1,1′-biphenyl]-4-yl)oxy)pentan-2-yl)amino)benzamido)propanoic Acid] | 7.14 | 0.044
16 | CC[C@H](C)[C@@H](COc1cc(Cl)c(-c2ccc(C(F)(F)F)cc2F)cc1Cl)Nc1ccc(C(=O)NCCC(=O)O)cc1 [Compound 3-21] | 6.53 | 0.653
17 | CCCC[C@@H](COc1ccc(-c2ccc(C(F)(F)F)cc2F)c(Cl)c1)Nc1ccc(C(=O)NCCC(=O)O)cc1 [Compound 3-22, (S)-3-(4-((1-((2-chloro-2′-fluoro-4′-(trifluoromethyl)-[1,1′-biphenyl]-4-yl)oxy)hexan-2-yl)amino)benzamido)propanoic Acid] | 7.08 | 0.054
18 | CC(C)(C)[C@@H](COc1ccc(-c2cc3ccccc3o2)c(Cl)c1)Nc1ccc(C(=O)NCCC(=O)O)cc1 [Compound 3-23, (S)-3-(4-((1-(4-(benzofuran-2-yl)-3-chlorophenoxy)-3,3-dimethylbutan-2-yl)amino)benzamido)propanoic Acid] | 6.81 | 0.293
19 | CC(C)(C)[C@@H](COc1ccc(-c2ccc(C(F)(F)F)cc2F)c(Cl)c1)Nc1ccc(C(=O)NCCC(=O)O)cc1 [Compound 3-24, (S)-3-(4-((1-((2-chloro-2′-fluoro-4′-(trifluoromethyl)-[1,1′-biphenyl]-4-yl)oxy)-3,3-dimethylbutan-2-yl)amino)benzamido)propanoic Acid] | 7.28 | 0.08
20 | CC(C)[C@@H](COc1ccc(-c2ccc(C(F)(F)F)cc2)cc1)Nc1ccc(C(=O)NCCC(=O)O)cn1 [Compound 4-1, (S)-3-(6-((3-methyl-1-((4′-(trifluoromethyl)-[1,1′-biphenyl]-4-yl)oxy)butan-2-yl)amino)nicotinamido)propanoic Acid] | 6.43 | 0.6269
21 | CC(C)[C@@H](COc1ccc(-c2cc3ccccc3o2)cc1)Nc1ccc(C(=O)NCCC(=O)O)cn1 [Compound 4-2, (S)-3-(6-((1-(4-(benzofuran-2-yl)phenoxy)-3-methylbutan-2-yl)amino)nicotinamido)propanoic Acid] | 7.05 | 0.1213
22 | CC[C@H](C)[C@@H](COc1ccc(-c2ccc(Cl)cc2Cl)cc1)Nc1ccc(C(=O)NCCC(=O)O)cn1 [Compound 4-3, 3-(6-(((2S,3S)-1-((2′,4′-dichloro-[1,1′-biphenyl]-4-yl)oxy)-3-methylpentan-2-yl)amino)nicotinamido)propanoic Acid] | 6.21 | 0.414
23 | CC[C@H](C)[C@@H](COc1ccc(-c2nnc(C(C)(C)C)o2)cc1)Nc1ccc(C(=O)NCCC(=O)O)cn1 [Compound 4-4, 3-(6-(((2S,3S)-1-(4-(5-(tert-butyl)-1,3,4-oxadiazol-2-yl)phenoxy)-3-methylpentan-2-yl)amino)nicotinamido)propanoic Acid] | 5.62 | >30
24 | CC[C@H](C)[C@@H](COc1ccc(-c2nnc(-c3ccccc3)o2)cc1)Nc1ccc(C(=O)NCCC(=O)O)cn1 [Compound 4-5, 3-(6-(((2S,3S)-3-methyl-1-(4-(5-phenyl-1,3,4-oxadiazol-2-yl)phenoxy)pentan-2-yl)amino)nicotinamido)propanoic Acid] | 6.15 | 11.2
25 | CC(C)[C@@H](CSc1ccc(-c2cc3ccccc3o2)cc1)Nc1ccc(C(=O)NCCC(=O)O)cc1 [Compound 5-1, (S)-3-(4-((1-((4-(benzofuran-2-yl)phenyl)thio)-3-methylbutan-2-yl)amino)benzamido)propanoic Acid] | 5.69 | 14.405
26 | CC[C@H](C)[C@@H](CSc1ccc(-c2ccc(C(F)(F)F)cc2)cc1)Nc1ccc(C(=O)NCCC(=O)O)cc1 [Compound 5-2, 3-(4-(((2S,3S)-3-methyl-1-((4′-(trifluoromethyl)-[1,1′-biphenyl]-4-yl)thio)pentan-2-yl)amino)benzamido)propanoic Acid] | 5.92 | 2.465
